For nine compounds, % of control, % of engagement and % of inhibition results are on record in ChEMBL document CHEMBL5465560, “Selectivity Literature for EUbOPEN Chemogenomic Library” (2024).

In assay [1] the target is Casein kinase I isoform gamma-3 (Homo sapiens) (UniProt Q9Y6M4). The experiment in a line: Selectivity interaction (Kinase panel (Z-LYTE Assay)) EUB0001632a CSNK1G3. The settings on record: at 10 µM.
For assay [2], the target named is T1, EKC/KEOPS complex subunit TP53RK (Homo sapiens) (UniProt Q96S44).
T1 sequence (whole entry): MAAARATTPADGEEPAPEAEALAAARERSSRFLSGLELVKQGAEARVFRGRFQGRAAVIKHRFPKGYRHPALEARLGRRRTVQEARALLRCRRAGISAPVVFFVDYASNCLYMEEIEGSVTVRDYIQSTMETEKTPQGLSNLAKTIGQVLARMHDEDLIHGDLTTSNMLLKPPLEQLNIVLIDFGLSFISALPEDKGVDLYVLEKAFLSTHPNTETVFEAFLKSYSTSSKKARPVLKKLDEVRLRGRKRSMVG
Put plainly: Selectivity interaction (Kinase panel (KiNativ target engagement assay in Jurkat cells)) EUB0001635a TP53RK. The settings on record: Selectivity number of off-targets 0.0, Selectivity number of targets 233.0, Source Knowledge https://www.sciencedirect.com/science/article/pii/S2451945619300674?via%3Dihub, at 1 µM. Format: cell-based.

The target in assay [3] is Mitogen-activated protein kinase kinase kinase kinase 5 (Homo sapiens) (UniProt Q9Y4K4). The experiment in a line: Selectivity interaction (Ambit KINOMEscan and KiNATiv profiling in Jurkat cells) EUB0000090b MAP4K5. Type of assay: cell-based. To be noted: at 1 µM.
Chain of Mitogen-activated protein kinase kinase kinase kinase 5 (Homo sapiens) (Q9Y4K4 whole entry, looked up): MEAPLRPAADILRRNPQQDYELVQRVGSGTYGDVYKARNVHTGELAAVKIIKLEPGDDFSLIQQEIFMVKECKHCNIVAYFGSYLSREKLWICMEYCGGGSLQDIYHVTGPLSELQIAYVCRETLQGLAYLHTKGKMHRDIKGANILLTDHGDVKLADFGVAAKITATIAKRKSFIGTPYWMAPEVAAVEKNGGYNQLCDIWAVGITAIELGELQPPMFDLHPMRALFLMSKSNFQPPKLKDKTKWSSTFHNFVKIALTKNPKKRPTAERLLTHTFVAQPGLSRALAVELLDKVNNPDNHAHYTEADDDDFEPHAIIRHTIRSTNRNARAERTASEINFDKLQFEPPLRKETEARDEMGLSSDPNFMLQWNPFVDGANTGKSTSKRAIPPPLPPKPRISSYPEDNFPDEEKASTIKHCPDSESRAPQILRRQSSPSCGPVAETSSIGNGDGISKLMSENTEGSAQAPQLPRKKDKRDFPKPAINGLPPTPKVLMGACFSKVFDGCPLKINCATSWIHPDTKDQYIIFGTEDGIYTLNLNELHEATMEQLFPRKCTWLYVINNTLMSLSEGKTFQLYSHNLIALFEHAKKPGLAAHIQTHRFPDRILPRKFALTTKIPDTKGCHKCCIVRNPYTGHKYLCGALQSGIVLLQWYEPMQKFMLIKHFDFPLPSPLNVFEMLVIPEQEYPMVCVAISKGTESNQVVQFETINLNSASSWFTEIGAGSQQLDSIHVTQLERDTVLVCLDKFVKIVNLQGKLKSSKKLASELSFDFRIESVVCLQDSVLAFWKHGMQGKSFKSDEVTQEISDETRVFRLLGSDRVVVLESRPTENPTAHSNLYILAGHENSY
For assay [4], the target named is Serine/threonine-protein kinase PLK1 (Homo sapiens, UniProt P53350). The settings on record: at 10 µM.
Chain of Serine/threonine-protein kinase PLK1 (P53350 whole entry): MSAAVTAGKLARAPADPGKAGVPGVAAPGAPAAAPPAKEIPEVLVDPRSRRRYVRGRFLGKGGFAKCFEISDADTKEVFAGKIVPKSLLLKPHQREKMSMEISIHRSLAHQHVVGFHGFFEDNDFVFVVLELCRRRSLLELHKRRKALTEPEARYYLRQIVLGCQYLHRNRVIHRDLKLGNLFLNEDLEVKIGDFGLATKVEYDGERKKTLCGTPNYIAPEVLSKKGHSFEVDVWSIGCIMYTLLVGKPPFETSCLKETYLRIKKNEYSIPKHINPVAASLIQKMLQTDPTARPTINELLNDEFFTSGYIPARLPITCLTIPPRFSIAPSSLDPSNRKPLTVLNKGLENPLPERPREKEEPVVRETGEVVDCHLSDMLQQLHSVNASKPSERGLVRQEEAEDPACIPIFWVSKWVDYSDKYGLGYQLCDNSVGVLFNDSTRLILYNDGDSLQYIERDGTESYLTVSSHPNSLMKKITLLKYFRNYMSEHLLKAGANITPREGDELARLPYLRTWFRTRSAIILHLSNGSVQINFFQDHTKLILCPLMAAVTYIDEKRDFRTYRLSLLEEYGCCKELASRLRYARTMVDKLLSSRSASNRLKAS
Assay [5] concerns the target Serine/threonine-protein kinase/endoribonuclease IRE1 (Homo sapiens) (UniProt O75460). The experiment in a line: Selectivity interaction (KinomeScan (DiscoverX)) EUB0000655a ERN1. The settings on record: at 10 µM.
In assay [6] the target is Atypical kinase COQ8A, mitochondrial (Homo sapiens, UniProt Q8NI60). Put plainly: Selectivity interaction (KinomeScan (DiscoverX)) EUB0000655a ADCK3. The settings on record: at 10 µM.
Chain of Atypical kinase COQ8A, mitochondrial (Q8NI60 163-647 limits assumed): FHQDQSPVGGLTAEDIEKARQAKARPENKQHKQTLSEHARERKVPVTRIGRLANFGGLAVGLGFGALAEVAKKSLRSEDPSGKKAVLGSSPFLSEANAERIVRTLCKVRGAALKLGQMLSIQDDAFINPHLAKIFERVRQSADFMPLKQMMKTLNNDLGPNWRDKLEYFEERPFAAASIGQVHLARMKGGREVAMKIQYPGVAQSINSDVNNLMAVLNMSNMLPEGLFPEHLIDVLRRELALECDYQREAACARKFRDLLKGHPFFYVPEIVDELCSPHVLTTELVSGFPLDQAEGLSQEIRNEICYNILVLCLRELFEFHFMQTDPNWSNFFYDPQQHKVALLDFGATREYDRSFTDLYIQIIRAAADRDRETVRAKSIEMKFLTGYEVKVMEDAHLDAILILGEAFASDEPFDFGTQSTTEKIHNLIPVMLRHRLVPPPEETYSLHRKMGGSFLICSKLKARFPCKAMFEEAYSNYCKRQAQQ
In assay [7] the target is Serine/threonine-protein kinase Nek7 (Homo sapiens) (UniProt Q8TDX7). The experiment in a line: Selectivity interaction (KinomeScan (DiscoverX)) EUB0001079a NEK7. The settings on record: at 1 µM.
Chain of Serine/threonine-protein kinase Nek7 (Homo sapiens) (Q8TDX7 whole entry, looked up): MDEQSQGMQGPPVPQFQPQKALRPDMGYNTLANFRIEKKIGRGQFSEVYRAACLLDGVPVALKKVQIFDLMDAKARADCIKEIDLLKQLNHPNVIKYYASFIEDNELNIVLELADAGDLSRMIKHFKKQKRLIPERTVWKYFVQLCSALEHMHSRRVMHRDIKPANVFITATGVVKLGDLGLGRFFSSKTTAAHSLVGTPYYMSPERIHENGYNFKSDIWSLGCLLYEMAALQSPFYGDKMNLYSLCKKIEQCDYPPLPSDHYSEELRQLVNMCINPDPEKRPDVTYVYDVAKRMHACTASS
The target in assay [8] is T2, Serine/threonine-protein kinase 17A (Homo sapiens) (UniProt Q9UEE5).
T2 sequence (whole entry): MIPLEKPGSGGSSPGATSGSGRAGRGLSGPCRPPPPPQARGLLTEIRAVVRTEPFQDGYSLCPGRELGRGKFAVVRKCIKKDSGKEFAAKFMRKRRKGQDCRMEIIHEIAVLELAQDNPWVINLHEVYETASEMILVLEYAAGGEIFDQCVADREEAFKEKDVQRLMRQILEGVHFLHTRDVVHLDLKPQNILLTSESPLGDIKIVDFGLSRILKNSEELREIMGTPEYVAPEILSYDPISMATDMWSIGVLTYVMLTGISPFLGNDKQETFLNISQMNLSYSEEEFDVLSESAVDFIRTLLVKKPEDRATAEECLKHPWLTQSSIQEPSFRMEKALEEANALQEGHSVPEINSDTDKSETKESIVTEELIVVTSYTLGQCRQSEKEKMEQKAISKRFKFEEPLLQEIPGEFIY
Put plainly: Selectivity interaction (KinomeScan (DiscoverX)) EUB0001079a STK17A. To be noted: at 1 µM.

Assay [9] addresses T3, Serine/threonine-protein kinase D3 (Homo sapiens) (UniProt O94806).
T3 sequence (whole entry): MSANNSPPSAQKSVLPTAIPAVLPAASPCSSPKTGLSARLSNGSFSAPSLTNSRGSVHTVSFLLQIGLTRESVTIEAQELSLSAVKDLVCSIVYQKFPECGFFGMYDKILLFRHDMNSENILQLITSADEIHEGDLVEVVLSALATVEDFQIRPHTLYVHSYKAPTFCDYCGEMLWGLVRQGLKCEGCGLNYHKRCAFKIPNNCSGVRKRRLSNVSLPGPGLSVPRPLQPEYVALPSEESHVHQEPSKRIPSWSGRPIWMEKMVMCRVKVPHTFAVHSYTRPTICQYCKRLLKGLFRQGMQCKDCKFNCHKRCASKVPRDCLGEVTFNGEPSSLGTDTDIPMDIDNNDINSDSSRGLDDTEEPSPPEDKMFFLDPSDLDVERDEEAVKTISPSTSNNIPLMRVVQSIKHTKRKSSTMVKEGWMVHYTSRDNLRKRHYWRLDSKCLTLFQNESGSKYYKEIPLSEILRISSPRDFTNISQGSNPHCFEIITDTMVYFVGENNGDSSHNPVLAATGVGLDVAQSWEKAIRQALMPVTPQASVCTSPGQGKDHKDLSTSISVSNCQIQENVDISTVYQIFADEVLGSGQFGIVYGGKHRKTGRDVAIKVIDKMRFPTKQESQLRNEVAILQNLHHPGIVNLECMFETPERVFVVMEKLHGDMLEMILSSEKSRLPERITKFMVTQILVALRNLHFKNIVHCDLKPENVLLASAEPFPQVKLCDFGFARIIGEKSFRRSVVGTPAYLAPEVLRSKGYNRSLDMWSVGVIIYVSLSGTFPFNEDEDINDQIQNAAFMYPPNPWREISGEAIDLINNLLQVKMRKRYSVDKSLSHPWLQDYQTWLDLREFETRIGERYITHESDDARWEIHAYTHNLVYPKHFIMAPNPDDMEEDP
The experiment in a line: Selectivity interaction (ActivX KiNativ screen (kinase selectivity in THP-1 cell lysates)) EUB0000639a PRKD3. Type of assay: subcellular. The settings on record: lysate, at 0.01 µM.

The target in assay [10] is Ribosomal protein S6 kinase alpha-1 (Homo sapiens, UniProt Q15418). Put plainly: Selectivity interaction (ActivX KiNativ screen (kinase selectivity in THP-1 cell lysates)) EUB0000639a RPS6KA1. Format: subcellular. To be noted: lysate, at 0.04 µM.
Chain of Ribosomal protein S6 kinase alpha-1 (Q15418 whole entry): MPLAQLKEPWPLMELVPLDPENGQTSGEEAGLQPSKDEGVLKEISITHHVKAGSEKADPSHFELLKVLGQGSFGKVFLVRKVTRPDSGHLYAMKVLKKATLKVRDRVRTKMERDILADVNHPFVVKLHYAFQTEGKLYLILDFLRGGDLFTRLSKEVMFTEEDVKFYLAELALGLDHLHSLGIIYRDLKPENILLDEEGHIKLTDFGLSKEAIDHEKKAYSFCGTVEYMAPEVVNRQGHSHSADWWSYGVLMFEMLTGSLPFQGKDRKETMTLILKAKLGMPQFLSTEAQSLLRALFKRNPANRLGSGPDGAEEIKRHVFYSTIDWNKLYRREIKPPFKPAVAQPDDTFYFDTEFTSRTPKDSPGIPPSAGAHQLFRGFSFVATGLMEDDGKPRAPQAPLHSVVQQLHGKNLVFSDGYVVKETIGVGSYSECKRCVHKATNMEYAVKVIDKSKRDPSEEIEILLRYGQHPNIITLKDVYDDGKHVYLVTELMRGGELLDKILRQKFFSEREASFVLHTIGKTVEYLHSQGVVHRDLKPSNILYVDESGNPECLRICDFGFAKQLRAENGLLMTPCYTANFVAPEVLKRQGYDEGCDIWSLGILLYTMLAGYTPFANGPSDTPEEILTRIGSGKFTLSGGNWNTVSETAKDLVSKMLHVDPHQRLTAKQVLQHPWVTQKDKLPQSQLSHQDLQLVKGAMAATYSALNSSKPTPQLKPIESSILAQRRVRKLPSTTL
The target of assay [11] is Calcium/calmodulin-dependent protein kinase type II subunit beta (Homo sapiens) (UniProt Q13554). The experiment in a line: Selectivity interaction (KinomeScan (DiscoverX)) EUB0000045b CAMK2B.
Chain of Calcium/calmodulin-dependent protein kinase type II subunit beta (Homo sapiens) (Q13554 whole entry): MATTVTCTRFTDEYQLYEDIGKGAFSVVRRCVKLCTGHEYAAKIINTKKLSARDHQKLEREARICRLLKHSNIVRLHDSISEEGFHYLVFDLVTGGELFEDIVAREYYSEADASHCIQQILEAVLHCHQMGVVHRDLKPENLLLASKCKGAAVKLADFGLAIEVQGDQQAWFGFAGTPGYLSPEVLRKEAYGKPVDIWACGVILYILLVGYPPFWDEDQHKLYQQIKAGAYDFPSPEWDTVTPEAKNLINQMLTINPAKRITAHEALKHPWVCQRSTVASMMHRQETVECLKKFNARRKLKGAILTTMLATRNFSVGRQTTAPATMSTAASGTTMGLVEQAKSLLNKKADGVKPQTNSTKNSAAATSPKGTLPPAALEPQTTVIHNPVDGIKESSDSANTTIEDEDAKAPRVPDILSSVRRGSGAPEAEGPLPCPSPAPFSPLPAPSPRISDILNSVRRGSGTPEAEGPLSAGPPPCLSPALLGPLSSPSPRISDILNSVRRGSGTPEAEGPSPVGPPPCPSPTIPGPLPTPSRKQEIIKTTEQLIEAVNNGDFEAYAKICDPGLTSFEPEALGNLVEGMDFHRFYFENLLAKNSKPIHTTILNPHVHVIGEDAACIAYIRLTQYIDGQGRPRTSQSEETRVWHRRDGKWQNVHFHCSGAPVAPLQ
The target of assay [12] is T4, Serine/threonine-protein kinase Chk1 (Homo sapiens) (UniProt O14757).
T4 sequence (whole entry): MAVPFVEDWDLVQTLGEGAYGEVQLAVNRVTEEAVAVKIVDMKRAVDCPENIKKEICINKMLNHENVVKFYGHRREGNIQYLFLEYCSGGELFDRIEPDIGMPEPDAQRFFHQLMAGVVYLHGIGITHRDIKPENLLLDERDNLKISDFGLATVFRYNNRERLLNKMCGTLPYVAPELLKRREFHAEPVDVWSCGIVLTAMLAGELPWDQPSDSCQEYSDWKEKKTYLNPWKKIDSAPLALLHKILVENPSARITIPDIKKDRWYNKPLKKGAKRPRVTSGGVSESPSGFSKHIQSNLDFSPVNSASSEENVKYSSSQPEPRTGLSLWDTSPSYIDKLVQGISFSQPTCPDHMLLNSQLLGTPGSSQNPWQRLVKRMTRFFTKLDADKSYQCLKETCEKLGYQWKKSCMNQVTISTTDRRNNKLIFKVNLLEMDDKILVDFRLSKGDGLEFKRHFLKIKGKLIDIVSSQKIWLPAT
The experiment in a line: Selectivity interaction (KinomeScan (DiscoverX)) EUB0000618a CHEK1. The settings on record: at 10 µM.

Chain of Serine/threonine-protein kinase/endoribonuclease IRE1 (Homo sapiens) (O75460 19-977 limits assumed): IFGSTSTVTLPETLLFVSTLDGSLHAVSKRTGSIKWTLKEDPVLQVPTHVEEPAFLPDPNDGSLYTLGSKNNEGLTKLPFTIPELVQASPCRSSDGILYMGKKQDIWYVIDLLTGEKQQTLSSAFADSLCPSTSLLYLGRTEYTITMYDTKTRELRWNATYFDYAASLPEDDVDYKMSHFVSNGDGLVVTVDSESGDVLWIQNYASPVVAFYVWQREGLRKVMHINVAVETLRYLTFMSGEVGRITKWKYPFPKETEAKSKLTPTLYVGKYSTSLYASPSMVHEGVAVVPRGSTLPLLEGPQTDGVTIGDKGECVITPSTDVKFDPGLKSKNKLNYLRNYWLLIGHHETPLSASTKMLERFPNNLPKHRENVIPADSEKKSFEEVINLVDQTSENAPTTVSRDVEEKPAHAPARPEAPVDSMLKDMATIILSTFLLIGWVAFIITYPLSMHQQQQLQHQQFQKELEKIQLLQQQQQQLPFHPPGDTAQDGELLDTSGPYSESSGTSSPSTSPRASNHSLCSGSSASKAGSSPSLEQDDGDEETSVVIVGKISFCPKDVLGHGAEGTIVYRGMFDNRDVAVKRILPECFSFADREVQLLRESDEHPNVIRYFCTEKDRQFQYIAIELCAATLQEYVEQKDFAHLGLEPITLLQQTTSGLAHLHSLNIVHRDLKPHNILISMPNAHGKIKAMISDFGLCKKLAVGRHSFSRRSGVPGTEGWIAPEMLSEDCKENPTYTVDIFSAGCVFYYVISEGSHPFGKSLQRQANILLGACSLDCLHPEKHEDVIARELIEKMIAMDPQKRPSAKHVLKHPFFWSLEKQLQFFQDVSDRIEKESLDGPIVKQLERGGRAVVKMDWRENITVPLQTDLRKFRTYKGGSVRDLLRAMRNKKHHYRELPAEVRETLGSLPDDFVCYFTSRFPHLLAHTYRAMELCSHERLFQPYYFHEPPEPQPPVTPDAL
Chain of Casein kinase I isoform gamma-3 (Homo sapiens) (Q9Y6M4 whole entry, looked up, canonical isoform): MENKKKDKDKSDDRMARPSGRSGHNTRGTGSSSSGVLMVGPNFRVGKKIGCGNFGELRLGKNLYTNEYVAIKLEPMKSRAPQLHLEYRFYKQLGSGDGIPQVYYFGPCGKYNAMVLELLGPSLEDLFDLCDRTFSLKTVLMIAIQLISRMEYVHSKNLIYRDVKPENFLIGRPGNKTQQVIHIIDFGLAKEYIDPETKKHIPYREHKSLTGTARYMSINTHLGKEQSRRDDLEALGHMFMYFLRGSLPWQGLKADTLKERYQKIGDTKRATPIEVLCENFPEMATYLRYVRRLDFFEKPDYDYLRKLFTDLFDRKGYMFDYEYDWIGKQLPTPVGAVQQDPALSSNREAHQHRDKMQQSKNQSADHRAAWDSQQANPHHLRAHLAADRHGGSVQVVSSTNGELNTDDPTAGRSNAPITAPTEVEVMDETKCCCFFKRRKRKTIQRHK

In the case of `Cn1cc(-n2cnc3c(NCc4nc5cc(Cl)c(Cl)cc5[nH]4)nc(N4CCOCC4)nc32)cn1`, in [1], the % of control worked out at 6.17%.
For `C=CC(=O)Nc1ccc(C(=O)Nc2[nH]nc3c2CN(C(=O)N[C@H](CN(C)C)c2ccccc2)C3(C)C)cc1`, in assay [2], the % of engagement was -14.9%.
As for `CN(C)C/C=C/C(=O)Nc1ccc(C(=O)N2CCCC(Nc3ncc(Cl)c(-c4c[nH]c5ccccc45)n3)C2)cc1` (stereo not drawn), in assay [3], the % of control is 81%.
`Cc1cc([C@@H](C)Nc2ccccc2C(=O)O)c2nc(N3CCOCC3)cc(=O)n2c1` [AZD-6482]: in [4], the % of control was 100%.
For the compound `CN(C)CCOc1ccc(-c2nc(-c3ccncc3)c(-c3ccc4c(c3)CC/C4=N\O)[nH]2)cc1`, the % of control in [5] was determined as 62%; in assay [6], 7%.
With `Nc1cnc(N2CCc3cc(S(=O)(=O)Nc4c(F)cc(Cl)cc4F)cc(N4CCCC4=O)c32)nc1` [TP-020n], the % of control came out at 96% in assay [7] and 100% in assay [8].
In the case of `CC[C@@H]1[C@H](F)C(=O)N[C@@H]1COc1nccc2cc(C(N)=O)c(OC)cc12` [ZIMLOVISERTIB], the values for the % of inhibition in [9] and in [10] were 0% and -5.9%, respectively.
On to `C=CC(=O)Nc1cc(-n2c(=O)ccc3cnc4ccc(-c5ccc(NS(C)(=O)=O)cc5)cc4c32)ccc1C`, for which the results for the % of control in assay [11] (at 1 µM) and in [11] (at 10 µM) were 100% and 74%, respectively.
As to `O[C@H]1CC[C@H](Nc2ncc3nc(Nc4c(F)cc(F)cc4F)n([C@H]4CCOC4)c3n2)CC1`, the % of control in assay [12] amounted to 97%.
